Several values for one entry are separate records, joined by “and”; a condition that tells them apart may be missing. Equal entries are not always repeated.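 Results reflect a 48-hour exposure of cells in 96-well plates to compound at five concentrations. At the GI50, growth is halved.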 Activity calls are given as the source filed them. Cut-off read from the data, not from the text of the source: active = GI50 up to about 1.1 µM and inactive = higher.
Legend:
Assay in all cases: NCI tumour cell line growth inhibition, 48 h
[1] = test system: NCI-H226
[2] = test system: 786-0
[3] = test system: NCI-H522
[4] = test system: IGROV-1
[5] = test system: OVCAR-4
[6] = test system: Hs-578T
[7] = test system: RXF 393
[8] = test system: KM12
[9] = test system: CAKI-1
[10] = test system: DU-145
[11] = test system: NCI-H23
[12] = test system: CCRF-CEM
[13] = test system: OVCAR-5
[14] = test system: A498
[15] = test system: LOX IMVI
[16] = test system: NCI/ADR-RES
[17] = test system: NCI-H460
[18] = test system: HL-60
[19] = test system: SW-620
[20] = test system: Malme-3M
[21] = test system: MDA-MB-231
[22] = test system: UACC-257
[23] = test system: A549
[24] = test system: HT-29
[25] = test system: SNB-75
[26] = test system: MDA-N
[27] = test system: OVCAR-3
[28] = test system: EKVX
[29] = test system: SN12C
[30] = test system: HCT-15
[31] = test system: SF-539
[32] = test system: MOLT-4
[33] = test system: K562
[34] = test system: HOP-62
[35] = test system: MCF7
[36] = test system: M14
[37] = test system: UACC-62
[38] = test system: SR
[39] = test system: SNB-19
[40] = test system: T47D
[41] = test system: TK-10
[42] = test system: ACHN
[43] = test system: SK-OV-3
[44] = test system: HOP-92
[45] = test system: OVCAR-8
[46] = test system: HCT-116
[47] = test system: HCC 2998
[48] = test system: U-251
[49] = test system: SK-MEL-28
[50] = test system: SF-268
[51] = test system: MDA-MB-435
[52] = test system: SF-295
[53] = test system: COLO 205
[54] = test system: SK-MEL-2
[55] = test system: RPMI-8226
[56] = test system: SK-MEL-5
[57] = test system: PC-3
[58] = test system: UO-31

Measured: GI50

O=C(Sc1c(-c2ccccc2)c(=O)n(-c2ccccc2)c(=S)n1-c1ccccc1)c1ccc(Cl)cc1
inactive: [1] > 100 µM | [2] > 100 µM | [3] 81.5 µM | [4] 63 µM | [5] > 100 µM | [6] > 100 µM | [7] > 100 µM | [8] > 100 µM | [9] > 100 µM | [10] > 100 µM | [11] > 100 µM | [12] 32.5 µM | [13] > 100 µM | [14] 98.9 µM | [15] > 100 µM | [16] > 100 µM | [17] > 100 µM | [18] > 100 µM | [19] > 100 µM | [20] > 100 µM | [21] 55.8 µM | [22] > 100 µM | [23] > 100 µM | [24] > 100 µM | [25] > 100 µM | [26] > 100 µM | [27] > 100 µM | [28] > 100 µM | [29] > 100 µM | [31] > 100 µM | [32] 49.3 µM | [33] 75 µM | [34] > 100 µM | [35] 74.3 µM | [36] > 100 µM | [37] > 100 µM | [38] > 100 µM | [39] > 100 µM | [40] 71 µM | [41] > 100 µM | [42] > 100 µM | [43] > 100 µM | [44] 55.6 µM | [45] > 100 µM | [46] > 100 µM | [47] > 100 µM | [48] > 100 µM | [49] > 100 µM | [50] > 100 µM | [51] > 100 µM | [52] > 100 µM | [53] > 100 µM
> 100 µM: [30]

COc1cc(Br)c(CC2C3=C(CCN2C(=O)C2CCC2)CC(=O)CC3)cc1O (stereo not given)
inactive: [54] 36.1 µM | [1] 41.9 µM | [2] 26.5 µM | [3] 14.5 µM | [4] 36.3 µM | [6] 26.1 µM | [8] 27.2 µM | [10] 49.4 µM | [11] 18.2 µM | [12] 25.5 µM | [13] > 100 µM | [15] 47.8 µM | [55] 32.7 µM | [16] 27.5 µM | [17] 45.3 µM | [18] 5.9 µM | [19] 34.6 µM | [20] 28.3 µM | [21] 26.5 µM | [22] 27.9 µM | [23] 61.7 µM | [24] 24.9 µM | [25] 26.8 µM | [26] 19.6 µM | [27] 23.6 µM | [28] 30.2 µM | [29] 51.3 µM | [31] 46.2 µM | [32] 26.1 µM | [33] 21.6 µM | [56] 28.6 µM | [34] 44.2 µM | [36] 33.4 µM | [37] 15.6 µM | [38] 38.4 µM | [39] 51.2 µM | [40] 26.2 µM | [41] 30.4 µM | [42] 27.5 µM | [57] 30.7 µM | [43] 56.9 µM | [44] 20.4 µM | [45] 38 µM | [58] 55.6 µM | [46] 30.3 µM | [47] 26.7 µM | [48] 42.7 µM | [49] 46.7 µM | [50] 31.3 µM | [51] 17.1 µM | [52] 33.5 µM | [53] 19.5 µM
18.7 µM: [30]

CN1C2C=CC(=O)C1C(C#N)C2 (stereo not given)
inactive: [4] 56 µM | [6] > 100 µM and 85.3 µM | [8] 42.9 µM and 38.5 µM | [10] 68.7 µM and 40 µM | [11] 32.4 µM and 22.3 µM | [12] 23.2 µM and 19 µM | [14] 49.5 µM and 46.1 µM | [16] 30.5 µM and 28.2 µM | [17] 37.2 µM and 31.7 µM | [18] 32.2 µM and 18.6 µM | [19] 28.7 µM and 51.8 µM | [20] 24 µM and 40 µM | [23] 66.4 µM and 34.5 µM | [26] 29.1 µM and 41.3 µM | [27] 62.1 µM and 35.4 µM | [29] 59.7 µM and 35.8 µM | [31] 28.4 µM and 36.3 µM | [32] 30.1 µM and 29.5 µM | [33] 36.1 µM and 19.3 µM | [56] 55.1 µM | [34] 94.4 µM | [35] 31.8 µM and 35.8 µM | [37] 80.4 µM and 76.4 µM | [39] 77.8 µM | [40] 21.1 µM and 39.2 µM | [41] > 100 µM and 66.4 µM | [42] 72.3 µM and 52.5 µM | [57] > 100 µM | [43] > 100 µM and 83.8 µM | [44] 9.82 µM and 16.4 µM | [46] 33.5 µM and 18.9 µM | [50] 95.9 µM and 75.5 µM | [51] 29.5 µM and 42.9 µM
30.5 µM and 24.1 µM: [30]

C=CCP(=O)(CC=C)C(Cl)Cl
> 100 µM: [30]
inactive: [54] > 100 µM | [1] > 100 µM | [3] > 100 µM | [4] > 100 µM | [5] > 100 µM | [6] > 100 µM | [9] > 100 µM | [10] > 100 µM | [11] > 100 µM | [12] > 100 µM | [13] > 100 µM | [15] > 100 µM | [55] > 100 µM | [16] > 100 µM | [17] > 100 µM | [18] > 100 µM | [19] > 100 µM | [21] > 100 µM | [22] > 100 µM | [23] > 100 µM | [24] > 100 µM | [25] > 100 µM | [26] > 100 µM | [27] > 100 µM | [29] > 100 µM | [32] > 100 µM | [33] > 100 µM | [56] > 100 µM | [34] > 100 µM | [35] > 100 µM | [36] > 100 µM | [38] > 100 µM | [39] > 100 µM | [40] > 100 µM | [41] > 100 µM | [42] > 100 µM | [57] > 100 µM | [43] > 100 µM | [44] > 100 µM | [45] > 100 µM | [58] > 100 µM | [46] > 100 µM | [47] > 100 µM | [48] > 100 µM | [49] > 100 µM | [52] > 100 µM | [53] > 100 µM

O=C1/C(=C/c2cccs2)NC(=S)N1CN1CCCCC1
29.9 µM: [30]
inactive: [54] > 100 µM | [1] 78.2 µM | [2] 42.3 µM | [3] 71 µM | [4] 67.1 µM | [5] 20.7 µM | [6] > 100 µM | [8] > 100 µM | [10] 42.5 µM | [11] > 100 µM | [12] 60.5 µM | [13] > 100 µM | [14] > 100 µM | [15] 33 µM | [55] 28.9 µM | [16] > 100 µM | [19] 30.3 µM | [20] > 100 µM | [21] > 100 µM | [23] > 100 µM | [24] 39.9 µM | [25] > 100 µM | [26] > 100 µM | [27] > 100 µM | [28] 55 µM | [29] 97.5 µM | [32] 55.5 µM | [33] 52.1 µM | [56] 35.3 µM | [34] > 100 µM | [35] 28.2 µM | [36] 61.7 µM | [37] 55.8 µM | [38] 88.9 µM | [39] 29.7 µM | [41] > 100 µM | [42] 42.6 µM | [57] 98.2 µM | [43] > 100 µM | [44] 77.1 µM | [45] 41 µM | [58] 80.2 µM | [46] 33 µM | [48] 85.9 µM | [49] > 100 µM | [50] > 100 µM | [51] 85.1 µM | [52] > 100 µM | [53] 17.4 µM

CC[C@@]1(O)C[C@H](OC2CC(N(C)C)C(OC3CC(O)C(OC4CCC(=O)C(C)O4)C(C)O3)C(C)O2)c2c(cc3c(c2O)C(=O)c2c(O)ccc(O)c2C3=O)[C@H]1C(=O)OC (stereo not given in full)
active: [54] < 0.01 µM | [4] < 0.0001 µM | [12] < 0.0001 µM | [13] 0.01 µM | [14] < 0.01 µM | [18] < 0.0001 µM | [22] 0.0153 µM | [25] 0.0181 µM | [27] < 0.01 µM | [35] < 0.0001 µM | [36] < 0.01 µM | [37] < 0.01 µM | [38] < 0.01 µM | [39] < 0.0001 µM | [44] < 0.01 µM | [48] < 0.01 µM | [53] < 0.0001 µM
